Experimental data: paper PMC6691788, “Design and synthesis of phthalazine-based compounds as potent anticancer agents with potential antiangiogenic activity via VEGFR-2 inhibition” (Journal of Enzyme Inhibition and Medicinal Chemistry, 2019)

Tests used:
HCT-116 = assay: In vitro cytotoxic activity, SRB assay; type: cell-based; details: Homo sapiens; HCT-116, 48h
Procedure: (§1) In addition, compounds (12a, 12b, 12c, 16b, 16c and 17b) were evaluated against a third cell line (HepG-2) These first two cell lines were selected based on the sensitivity of the previously NCI-tested derivatives towards them amongst the 60 NCI panel. The growth inhibition is expressed as the median growth inhibitory concentration (IC50) which corresponds to the concentration required for 50% inhibition of cell viability and are provided in (Table S6 in supplementary material).
(§2) 5,000 cells in fresh medium were seeded in 96-well microlitre plates and left to attach for 24h. Cells were incubated with the tested compounds at concentration range from 0,1,2.5,5,10 µg/ml and incubation was continued for48h. After 48h treatment,the cells were fixed with 50µl cold 50% trichloroacetic acid (TCA )for 1h at 4 °C. Wells were then washed 5 times with water and stained for 30 min at room temperature with 50µl of 0.4%SRB dissolved in 1% acetic acid. The wells were then washed 4 times with 1% acetic acid. The plates were air dried and the dye was solubilized with 100µl/well of 10mM tris base (pH 10.5) for 5min on a shaker (Orbital Shaker OS 20,Boeco,Germany) at 1600 rpm. The optical density (O.D.)of each well was measured spectrophotometrically at 564 nm with an enzyme linked immunosorbent assay( ELIZA) micraplate reader (Tecan Sunrise,Austria).The mean back ground absorbance was subtracted automatically and mean values for each drug concentration was calculated.
(§3) The percentage of cell survival was calculated as follows:
(§4) Survival fraction =O.D.(treated cells)/O.D.(control cells)
(§5) The IC50 value (the concentration required to produce 50% inhibition of cell growth) was calculated using sigmodial dose response curve-fitting models (GraphPad,Prizm software incorporated). Each concentration was repeated 3 times.

MCF-7 = assay: In vitro cytotoxic activity, SRB assay; type: cell-based; details: Homo sapiens, MCF7; MCF-7, 48h
Procedure: as §1, §2, §3, §4, §5

VEGFR-2 tyrosine kinase = molecular target: T1, VEGFR-2 tyrosine kinase (Homo sapiens, UniProt P35968); assay: In vitro VEGFR-2 tyrosine kinase assay (BPS Bioscience); type: biochemical; details: for inhibition at 10 µM: read-out: VEGFR-2 % inhibition, 10 μM concentration
T1 construct: purchased BPS Bioscience 40301
Procedure: The VEGFR tyrosine kinase assays were performed at BPS Bioscience (www.bpsbioscience.com). All the synthesised compounds representing the six series were evaluated for their ability to inhibit VEGFR-2 tyrosine kinase at single dose of 10 µM.
The VEGFR tyrosine kinase activity at single dose concentration of 10 μM was carried out by BPS Bioscience (www.bpsbioscience.com). VEGFR (BPS#40301) served as the enzyme source and Poly (Glu, Tyr) sodium salt, (4:1, Glu:Tyr) (Sigma#P7244) served as the standardized substrate & Kinase-Glo Plus Luminescence kinase assay kit (Promega#V3772). The IC50 determination was carried out where quality control testing is routinely performed on each of the targets to insure compliance to acceptable standards. ^33P-ATP was purchased from Perkin Elmer and ADP-Glo^TM was purchased from Promega. All other materials were of standard laboratory grade.
The VEGFR tyrosine kinase activity was performed using Kinase-Glo Plus luminescence kinase assay kit (Promega). It measures kinase activity by quantitating the amount of ATP remaining in solution following a kinase reaction. The luminescent signal from the assay is correlated with the amount of ATP present and is inversely correlated with the amount of kinase activity. The compounds were diluted to 100 μM in 10% DMSO and […] of the dilution was added to a […] reaction so that the final concentration of DMSO is 1% in all of reactions. All of the enzymatic reactions were conducted at 30 °C for 40 min. The 50 μl reaction mixture contains […], pH 7.4, […], 0.1 mg/ml BSA, 0.2 mg/ml Poly (Glu, Tyr) substrate, 10 μM ATP and VEGFR. After the enzymatic reaction, […] of Kinase-GloPlus Luminescence kinase assay solution (Promega) was added to each reaction and incubate the plate for 5 min at room temperature. Luminescence signal was measured using a BioTek Synergy 2 microplate reader. The protein kinase assays used to determine IC50 value were performed using ADP-GloTM assay kit from Promega which measures the generation of ADP by the protein kinase. Generation of ADP by the protein kinase reaction leads to an increase in luminescence signal in the presence of ADP-GloTM assay kit. The assay was started by incubating the reaction mixture in a 96-well plate at 30 °C for 30 min. After the 30 min incubation period, the assay was terminated by the addition of […] of ADP-GloTM Reagent (Promega). The 96 well plate was shaken and then incubated for 40 min at ambient temperature. […] of Kinase detection reagent was added, the 96-well reaction plate was then read using the ADP-Glo Luminescences Protocol on a GloMax plate reader (Promega: Catalog #E7031). Blank control was set up that included all the assay components except the addition of appropriate substrate (replace with equal volume of kinase assay buffer). The corrected activity for each protein kinase target was determined by removing the blank control value.
VEGFR activity assays were performed in duplicate at each concentration. The luminescence data were analyzed using the computer software, Graphpad Prism. The difference between luminescence intensities in the absence of VEGFR (Lut) and in the presence of VEGFR (Luc) was defined as 100% activity (Lut - Luc). […] IC50 determination for inhibitor against VEGFR was estimated by generating a graph of log inhibitor vs normalized response with variable using the Prism software.

HepG-2 = assay: In vitro cytotoxic activity, SRB assay; type: cell-based; details: Homo sapiens, HepG2; HepG-2, 48h
Procedure: as §1, §2, §3, §4, §5

T1 sequence (P35968 20-1356): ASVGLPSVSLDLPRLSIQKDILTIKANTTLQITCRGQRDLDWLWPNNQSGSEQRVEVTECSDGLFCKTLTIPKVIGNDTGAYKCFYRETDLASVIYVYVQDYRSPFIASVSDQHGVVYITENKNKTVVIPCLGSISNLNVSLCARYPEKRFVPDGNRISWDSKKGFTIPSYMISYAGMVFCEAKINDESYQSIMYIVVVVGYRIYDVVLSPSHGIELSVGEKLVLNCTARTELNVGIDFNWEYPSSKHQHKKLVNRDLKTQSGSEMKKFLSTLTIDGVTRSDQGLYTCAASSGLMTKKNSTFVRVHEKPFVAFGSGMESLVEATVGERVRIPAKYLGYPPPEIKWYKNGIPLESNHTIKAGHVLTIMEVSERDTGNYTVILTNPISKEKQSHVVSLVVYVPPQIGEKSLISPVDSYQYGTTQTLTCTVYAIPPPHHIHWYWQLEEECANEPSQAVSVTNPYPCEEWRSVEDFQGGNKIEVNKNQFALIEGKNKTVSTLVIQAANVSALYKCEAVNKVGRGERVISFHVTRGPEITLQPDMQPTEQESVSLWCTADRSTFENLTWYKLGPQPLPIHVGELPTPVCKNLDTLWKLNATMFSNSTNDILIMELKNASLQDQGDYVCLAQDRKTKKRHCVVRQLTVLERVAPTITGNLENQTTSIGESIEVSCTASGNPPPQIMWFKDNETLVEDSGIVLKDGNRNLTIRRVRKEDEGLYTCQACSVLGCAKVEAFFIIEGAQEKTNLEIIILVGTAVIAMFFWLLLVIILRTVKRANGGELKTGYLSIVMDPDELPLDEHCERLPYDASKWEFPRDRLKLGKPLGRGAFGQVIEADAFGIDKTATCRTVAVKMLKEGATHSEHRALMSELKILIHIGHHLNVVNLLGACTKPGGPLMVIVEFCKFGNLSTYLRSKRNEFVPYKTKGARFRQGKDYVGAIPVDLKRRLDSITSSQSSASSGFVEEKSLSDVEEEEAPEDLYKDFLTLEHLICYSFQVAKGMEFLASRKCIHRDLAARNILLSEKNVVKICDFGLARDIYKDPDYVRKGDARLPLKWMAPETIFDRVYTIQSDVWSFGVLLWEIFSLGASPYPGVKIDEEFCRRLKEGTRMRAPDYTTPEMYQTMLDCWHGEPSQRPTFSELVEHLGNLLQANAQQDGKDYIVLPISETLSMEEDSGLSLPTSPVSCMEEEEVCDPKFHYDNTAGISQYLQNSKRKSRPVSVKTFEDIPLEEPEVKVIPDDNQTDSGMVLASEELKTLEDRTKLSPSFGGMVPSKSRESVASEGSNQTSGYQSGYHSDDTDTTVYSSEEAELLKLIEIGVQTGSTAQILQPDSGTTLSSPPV

SMILES	melting point	inhibition at 10 µM (VEGFR-2 tyrosine kinase)	IC50 (VEGFR-2 tyrosine kinase; 10 μM ATP/0.2 mg/ml poly-Glu-Tyr)	IC50 (HCT-116)	IC50 (MCF-7)	IC50 (HepG-2)
O=C(Nc1ccc(Nc2nncc3ccccc23)cc1)c1ccccc1 [Compound 5a, N-(4-(Phthalazin-1-ylamino)phenyl)benzamide]	142 to 144 °C	4%	–	977 µM	> 1000 µM	–
Cc1nnc(Nc2ccc(NC(=O)c3ccccc3)cc2)c2ccccc12 [Compound 5c, N-(4–(4-Methylphthalazin-1-ylamino)phenyl)benzamide]	283 to 285 °C	12%	–	15 µM	22.9 µM	–
O=C(Nc1ccccc1)Nc1ccc(Nc2nncc3ccccc23)cc1 [Compound 6a, 1-Phenyl-3–(4-(phthalazin-1-ylamino)phenyl)urea]	145 to 147 °C	13%	–	91.2 µM	67.6 µM	–
O=C(Nc1ccc(Nc2nncc3ccccc23)cc1)Nc1ccc(Cl)c(C(F)(F)F)c1 [Compound 6c, 1–(4-Chloro-3-(trifluoromethyl)phenyl)-3–(4-(phthalazin-1-ylamino)phenyl)urea]	288 to 291 °C	70%	13.4 µM	6 µM	6.2 µM	–
Cc1nnc(Nc2ccc(NC(=O)Nc3ccccc3)cc2)c2ccccc12 [Compound 6d, 1–(4-(4-Metyhlphthalazin-1-ylamino)phenyl)3-phenylurea]	284 to 286 °C	15%	–	57.5 µM	67.6 µM	–
Cc1nnc(Nc2ccc(NC(=O)Nc3ccc(Cl)c(C(F)(F)F)c3)cc2)c2ccccc12 [Compound 6f, 1–(4-Chloro-3-(trifluoromethyl)phenyl)-3–(4-(4-methylphthalazin-1-ylamino)phenyl)-urea]	258 to 260 °C	32%	–	3.1 µM	3.2 µM	–
COc1cccc2c1C(=O)c1c(O)c3c(c(O)c1C2=O)C[C@@](O)(C(=O)CO)C[C@@H]3O[C@H]1C[C@H](N)[C@H](O)[C@H](C)O1 [Dox, doxorubicin, reference compound]	–	–	–	0.62 µM	0.9 µM	0.5 µM

Continued, in another order:

melting point	inhibition at 10 µM (VEGFR-2 tyrosine kinase)	IC50 (VEGFR-2 tyrosine kinase; 10 μM ATP/0.2 mg/ml poly-Glu-Tyr)	SMILES	IC50 (HCT-116)	IC50 (MCF-7)	IC50 (HepG-2)
180 to 182 °C	5%	–	O=C(Nc1ccccc1)Nc1ccc(Oc2nncc3ccccc23)cc1 [Compound 7a, 1-Phenyl-3–(4-(phthalazin-1-yloxy)phenyl)urea]	–	–	–
158 to 160 °C	47%	–	O=C(Nc1ccc(Oc2nncc3ccccc23)cc1)Nc1ccc(Cl)c(C(F)(F)F)c1 [Compound 7c, 1–(4-Chloro-3-(trifluoromethyl)phenyl)-3–(4-(phthalazin-1-yloxy)phenyl)urea]	2.6 µM	2.5 µM	–
174 to 176 °C	10%	–	Cc1nnc(Oc2ccc(NC(=O)Nc3ccccc3)cc2)c2ccccc12 [Compound 7d]	7.2 µM	7.8 µM	–
150 to 152 °C	21%	–	Cc1nnc(Oc2ccc(NC(=O)Nc3ccc(Cl)c(C(F)(F)F)c3)cc2)c2ccccc12 [Compound 7f, 1–(4-Chloro-3-(trifluoromethyl)phenyl)-3–(4-(4-metyhlphthalazin-1-yloxy)phenyl)urea]	49 µM	31 µM	–
242 to 244 °C	8%	–	c1ccc(N2CCN(c3nncc4ccccc34)CC2)cc1 [Compound 8b, 1–(4-Phenylpiperazin-1-yl)phthalazine]	550 µM	363 µM	–
88 to 90 °C	9%	–	Fc1ccccc1N1CCN(c2nncc3ccccc23)CC1 [Compound 8c, 1–(4-(2-Fluorophenyl)piperazin-1-yl)phthalazine]	42.7 µM	32.4 µM	–
90 to 92 °C	9%	–	O=C(c1ccco1)N1CCN(c2nncc3ccccc23)CC1 [Compound 8e, Furan-2-yl-(4-(phthalazin-1-yl)piperazin-1-yl)methanone]	513 µM	190 µM	–
90 to 92 °C	10%	–	Cc1nnc(N2CCN(C(=O)c3ccco3)CC2)c2ccccc12 [Compound 8j, Furan-2-yl-(4–(4-methylphthalazin-1-yl)piperazin-1-yl)methanone]	479 µM	479 µM	–
225 to 227 °C	26%	–	O=C(Nc1ccccc1)Nc1ccc(Nc2nnc(Cl)c3ccccc23)cc1 [Compound 12a, 1–(4-(4Chlorophthalazin-1-ylamino)phenyl)-3-phenylurea]	479 µM	81.3 µM	> 1000 µM
164 to 166 °C	21%	–	Clc1ccc(Nc2nnc(CNc3cccc(Cl)c3)c3ccccc23)cc1 [Compound 16b, N-(4-Chlorophenyl)-4-((3-chlorophenylamino)methyl)phthalazin-1-amine]	28.8 µM	91 µM	77.6 µM
130 to 132 °C	19%	–	Cc1cccc(NCc2nnc(Nc3ccc(Cl)cc3)c3ccccc23)c1 [Compound 16c, N-(4-Chlorophenyl)-4-((m-tolylamino)methyl)phthalazin-1-amine]	257 µM	> 1000 µM	> 1000 µM
193 to 195 °C	15%	–	Cc1cccc(OCc2nnc(Nc3ccc(Cl)cc3)c3ccccc23)c1 [Compound 17b, N-(4-Chlorophenyl)-4-(m-tolyloxymethyl)phthalazin-1-amine]	38 µM	13.5 µM	39 µM
